According to ChEMBL document CHEMBL2157890, “Targeting pancreatic cancer with a G-quadruplex ligand” (Bioorg Med Chem, 2011):
Calls of active or inactive are those of the source. The calls are words filed in the database; no cut-off is given here.

Columns and labels:
[1] = test system: Mus musculus; assay: Biodistribution in human MIAPaCa2 cells xenografted Swiss mouse tumor at 3 mg/kg, ip dosed three times per week measured 48 hrs after last 4 cycles of compound dosing; format: ADME, organism-based, Neoplasm, MIA PaCa-2; set-up: dose 3 mg/kg, route intraperitoneal; settings: in vivo
[2] = test system: Pancreas; assay: Biodistribution in human MIAPaCa2 cells xenografted Swiss mouse Pancreas at 3 mg/kg, ip dosed three times per week measured 48 hrs after last 4 cycles of compound dosing; format: ADME, organism-based, MIA PaCa-2; set-up: dose 3 mg/kg, route intraperitoneal; settings: in vivo
[3] = test system: Nucleic Acid; assay: Stabilization of HSP90a DNA G-quadruplex assessed as change in melting temperature at 0.5 uM by FRET; format: nucleic-acid assay
[4] = test system: Nucleic Acid; assay: Stabilization of HSP90b DNA G-quadruplex assessed as change in melting temperature at 0.5 uM by FRET; format: nucleic-acid assay
[5] = test system: Nucleic Acid; assay: Stabilization of HSP90a DNA G-quadruplex assessed as change in melting temperature at 1 uM by FRET; format: nucleic-acid assay
[6] = test system: Nucleic Acid; assay: Stabilization of HSP90b DNA G-quadruplex assessed as change in melting temperature at 1 uM by FRET; format: nucleic-acid assay
[7] = test system: Mus musculus; assay: Inhibition of telomerase activity in human MIAPaCa2 cells xenografted Swiss mouse at 3 mg/kg, ip dosed for 25 days by TRAP-LIG assay relative to untreated control; format: functional; settings: MIA PaCa-2, ip, 600 h, route intraperitoneal
[8] = test system: Mus musculus; assay: Reduction in HSP90 protein expression in human MIAPaCa2 cells xenografted Swiss mouse tumor at 3 mg/kg, ip dosed three times per week by immunoblot; format: functional, MIA PaCa-2; set-up: scale not given: the % may be the effect or the level left; settings: route intraperitoneal
[9] = test system: Mus musculus; assay: Reduction in hTERT protein expression in human MIAPaCa2 cells xenografted Swiss mouse tumor at 3 mg/kg, ip dosed three times per week by immunoblot; format: functional, MIA PaCa-2; set-up: scale not given: the % may be the effect or the level left; settings: route intraperitoneal
[10] = test system: Mus musculus; assay: Reduction in k-Ras protein expression in human MIAPaCa2 cells xenografted Swiss mouse tumor at 3 mg/kg, ip dosed three times per week by immunoblot; format: functional, organism-based; set-up: dose 3 mg/kg; settings: MIA PaCa-2
[11] = test system: Mus musculus; assay: Reduction in Bcl-2 protein expression in human MIAPaCa2 cells xenografted Swiss mouse tumor at 3 mg/kg, ip dosed three times per week by immunoblot; format: functional, MIA PaCa-2; set-up: scale not given: the % may be the effect or the level left; settings: route intraperitoneal
[12] = test system: MIA PaCa-2; assay: Effect on PARP protein expression human MIAPaCa2 cells at 0.1 uM to 1 uM incubated for 8 hrs by Western blot; format: functional, cell-based
[13] = test system: MIA PaCa-2; assay: Effect on gammaH2AX protein expression human MIAPaCa2 cells at 0.1 uM to 1 uM incubated for 8 hrs by Western blot; format: functional, cell-based
[14] = test system: Mus musculus; assay: Toxicity in human MIAPaCa2 cells xenografted in Swiss mouse assessed as incidence of weight loss at 3 mg/kg, ip dosed three times per week; format: organism-based, MIA PaCa-2; set-up: dose 3 mg/kg, route intraperitoneal; settings: in vivo
[15] = Toxicity in human MIAPaCa2 cells xenografted in Swiss mouse assessed as maximum tolerated dosed intraperitoneally three times per week; format: organism-based, MIA PaCa-2; settings: in vivo, ip
[16] = test system: MIA PaCa-2; assay: Antitumor activity against human MIAPaCa2 cells xenografted in Swiss mouse assessed as reduction tumor volume at 3 mg/kg, ip dosed three times per week; format: functional; set-up: scale not given: the % may be the effect or the level left; settings: route intraperitoneal

For `CN1CCN(CCCNc2cc3c4c(c(NCCCN5CCN(C)CC5)cc5c4c2C(=O)N(CCCN2CCN(C)CC2)C5=O)C(=O)N(CCCN2CCN(C)CC2)C3=O)CC1`, the Drug uptake [1] was “Active”, the Drug uptake [2] was “Active” and the ΔTm [3] was 34.9 °C. It also gave a ΔTm [4] of 31 °C, a ΔTm [5] of 36.3 °C and a ΔTm [6] of 32 °C. For the same compound, the inhibition in vivo at 3 mg/kg [7] was 50%, the Activity [8] was 30% and the Activity [9] was 30%. For the same compound, the Activity [10] was “inactive”, the Activity [11] was 10% and the Activity [12] was “inactive”. The Activity [13] was “inactive”, the Activity [14] was “Non-toxic” and the MTD [15] was 15 mg/kg. The Activity [16] was 50%.
